Key:
[1] = molecular target: Beta-1 adrenergic receptor (Homo sapiens, UniProt P08588); assay: DRUGMATRIX: Adrenergic beta1 radioligand binding (ligand: [125I] Cyanopindolol); type: cell membranes, CHO-K1, Membrane; conditions: Not Active = under 50% inhibition at 10 µM
Substance-P receptor = Substance-P receptor (Homo sapiens, UniProt P25103); type: cell membranes, Membrane; conditions: cho; also: in other assays of this panel Not Active means under 50% inhibition at 10 µM
[2] = molecular target: C-C chemokine receptor type 5 (Homo sapiens, UniProt P51681); type: cell membranes, HEK293, Membrane; also: in other assays of this panel Not Active means under 50% inhibition at 10 µM
[3] = molecular target: T1, Cysteinyl leukotriene receptor 1 (Homo sapiens, UniProt Q9Y271); type: cell membranes, CHO-K1, Membrane; conditions: cho-k1; also: in other assays of this panel Not Active means under 50% inhibition at 10 µM
T1 sequence (Q9Y271 whole entry): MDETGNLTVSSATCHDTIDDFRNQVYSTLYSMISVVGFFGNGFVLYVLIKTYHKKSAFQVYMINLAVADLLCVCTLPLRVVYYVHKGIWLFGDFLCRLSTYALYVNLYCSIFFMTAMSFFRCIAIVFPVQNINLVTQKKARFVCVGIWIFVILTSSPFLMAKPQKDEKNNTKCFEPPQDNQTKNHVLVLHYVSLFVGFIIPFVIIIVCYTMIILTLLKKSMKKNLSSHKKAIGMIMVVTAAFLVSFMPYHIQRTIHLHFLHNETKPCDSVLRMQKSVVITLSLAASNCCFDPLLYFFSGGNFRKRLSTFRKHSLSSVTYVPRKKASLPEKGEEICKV

[4] = molecular target: Mitogen-activated protein kinase 1 (Homo sapiens, UniProt P28482); assay: DRUGMATRIX: Protein Serine/Threonine Kinase, ERK2 enzyme inhibition (substrate: Myelin Basic Protein); set-up: species or system Escherichia coli; conditions: Not Active = under 50% inhibition at 10 µM
Adenosine receptor A1 = molecular target: T2, Adenosine receptor A1 (Homo sapiens, UniProt P30542); type: cell membranes, CHO, Membrane; conditions: cho;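 also: radioligand binding assay at the adenosine A1 receptor, with DPCPX serving as the labelled ligand; in other assays of this panel Not Active means under 50% inhibition at 10 µM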
T2 sequence (P30542 whole entry): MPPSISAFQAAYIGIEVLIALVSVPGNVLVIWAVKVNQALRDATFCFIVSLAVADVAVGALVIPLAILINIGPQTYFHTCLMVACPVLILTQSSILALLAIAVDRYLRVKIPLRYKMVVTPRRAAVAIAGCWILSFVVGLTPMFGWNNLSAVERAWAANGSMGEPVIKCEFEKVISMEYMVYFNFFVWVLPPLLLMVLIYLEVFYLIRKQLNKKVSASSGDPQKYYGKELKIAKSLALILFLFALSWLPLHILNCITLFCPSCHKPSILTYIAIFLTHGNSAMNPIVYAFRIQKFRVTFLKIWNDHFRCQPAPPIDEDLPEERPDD

Adenosine receptor A2a = Adenosine receptor A2a (Homo sapiens, UniProt P29274); assay: DRUGMATRIX: Adenosine A2A radioligand binding (ligand: […]); type: cell membranes, HEK293, Membrane; conditions: hek293; Not Active = under 50% inhibition at 10 µM
Chain of Adenosine receptor A2a (P29274 whole entry): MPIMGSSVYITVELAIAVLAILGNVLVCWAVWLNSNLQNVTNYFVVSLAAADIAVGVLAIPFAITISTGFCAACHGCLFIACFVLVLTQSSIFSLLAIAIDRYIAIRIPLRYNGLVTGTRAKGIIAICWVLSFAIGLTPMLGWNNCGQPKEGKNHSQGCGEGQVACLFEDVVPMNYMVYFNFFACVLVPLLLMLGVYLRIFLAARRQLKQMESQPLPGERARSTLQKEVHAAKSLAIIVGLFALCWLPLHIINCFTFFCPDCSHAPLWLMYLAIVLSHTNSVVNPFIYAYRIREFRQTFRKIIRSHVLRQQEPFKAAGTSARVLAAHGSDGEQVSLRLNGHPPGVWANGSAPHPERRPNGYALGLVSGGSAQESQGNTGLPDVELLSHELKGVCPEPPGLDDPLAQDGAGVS

Chain of C-C chemokine receptor type 5 (P51681 whole entry): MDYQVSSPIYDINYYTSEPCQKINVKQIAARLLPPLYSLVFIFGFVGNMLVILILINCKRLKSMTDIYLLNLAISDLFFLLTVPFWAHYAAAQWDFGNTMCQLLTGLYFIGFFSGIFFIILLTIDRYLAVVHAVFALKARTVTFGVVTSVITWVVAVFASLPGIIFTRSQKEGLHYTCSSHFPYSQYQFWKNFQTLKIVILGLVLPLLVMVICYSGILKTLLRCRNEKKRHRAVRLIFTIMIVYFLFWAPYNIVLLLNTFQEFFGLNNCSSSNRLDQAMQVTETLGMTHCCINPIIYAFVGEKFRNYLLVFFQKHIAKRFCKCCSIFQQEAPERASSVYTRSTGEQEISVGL
Chain of Mitogen-activated protein kinase 1 (P28482 whole entry): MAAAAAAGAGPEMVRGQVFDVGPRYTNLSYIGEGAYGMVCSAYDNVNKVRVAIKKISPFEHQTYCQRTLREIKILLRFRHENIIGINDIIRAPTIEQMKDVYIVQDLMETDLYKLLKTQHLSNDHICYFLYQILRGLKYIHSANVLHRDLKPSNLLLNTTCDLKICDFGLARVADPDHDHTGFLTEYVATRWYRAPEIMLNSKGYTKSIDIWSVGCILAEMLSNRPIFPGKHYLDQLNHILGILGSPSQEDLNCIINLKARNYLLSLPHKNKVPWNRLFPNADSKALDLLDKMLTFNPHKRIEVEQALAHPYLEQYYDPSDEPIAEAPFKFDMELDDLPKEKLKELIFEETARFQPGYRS
Chain of Beta-1 adrenergic receptor (P08588 whole entry): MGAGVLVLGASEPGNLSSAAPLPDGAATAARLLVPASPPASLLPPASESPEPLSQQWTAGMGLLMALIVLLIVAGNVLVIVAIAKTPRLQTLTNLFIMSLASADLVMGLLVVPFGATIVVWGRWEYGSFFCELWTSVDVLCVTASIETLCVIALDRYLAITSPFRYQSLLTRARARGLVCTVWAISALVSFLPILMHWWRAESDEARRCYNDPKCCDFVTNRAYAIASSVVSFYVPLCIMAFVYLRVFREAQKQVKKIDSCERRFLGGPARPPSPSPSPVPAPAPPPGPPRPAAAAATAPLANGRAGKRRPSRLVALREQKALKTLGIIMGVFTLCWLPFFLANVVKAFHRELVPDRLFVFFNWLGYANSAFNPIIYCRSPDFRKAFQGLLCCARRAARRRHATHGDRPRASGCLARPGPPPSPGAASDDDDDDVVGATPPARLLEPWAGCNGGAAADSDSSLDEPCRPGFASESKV
Chain of Substance-P receptor (P25103 whole entry): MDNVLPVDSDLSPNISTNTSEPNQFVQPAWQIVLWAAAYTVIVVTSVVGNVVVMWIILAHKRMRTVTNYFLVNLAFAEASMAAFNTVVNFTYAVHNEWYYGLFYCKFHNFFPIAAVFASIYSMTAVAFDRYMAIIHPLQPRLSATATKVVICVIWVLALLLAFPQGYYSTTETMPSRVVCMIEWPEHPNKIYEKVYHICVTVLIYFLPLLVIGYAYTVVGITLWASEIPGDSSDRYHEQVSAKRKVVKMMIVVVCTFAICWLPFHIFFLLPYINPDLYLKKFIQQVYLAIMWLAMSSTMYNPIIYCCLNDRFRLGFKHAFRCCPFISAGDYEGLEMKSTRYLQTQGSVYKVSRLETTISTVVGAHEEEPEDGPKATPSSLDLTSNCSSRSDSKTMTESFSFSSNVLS

Structure (SMILES)	IC50 ([1]; cho-k1)	IC50 (Substance-P receptor)	IC50 ([2]; hek293)	IC50 [3]	IC50 [4]	IC50 (Adenosine receptor A1)	IC50 (Adenosine receptor A2a)	IC50 ([4]; read-out: IC50)	IC50 ([2]; read-out: IC50)	Ki ([2]; read-out: Ki)	IC50 ([1]; read-out: IC50)	Ki ([1]; read-out: Ki)
CC#C[C@]1(O)CC[C@H]2[C@@H]3CCC4=CC(=O)CCC4=C3[C@@H](c3ccc(N(C)C)cc3)C[C@@]21C [MIFEPRISTONE]	Not Active	Not Active	Not Active	Not Active	Not Active	Not Active	Not Active					
CC[C@@]1(O)C(=O)OCc2c1cc1n(c2=O)Cc2cc3c(CN(C)C)c(O)ccc3nc2-1 [TOPOTECAN]	Not Active	Not Active	Not Active	Not Active	Not Active	Not Active	Not Active					
Nc1nc(N)c2nc(-c3ccccc3)c(N)nc2n1	Not Active	Not Active	Not Active	Not Active	Not Active	Not Active	Not Active					
Cc1cc2c(s1)Nc1ccccc1N=C2N1CCN(C)CC1 [OLANZAPINE]	Not Active	Not Active	Not Active	Not Active	Not Active	Not Active	Not Active					
CC[C@H](C)[C@@H](CO[C@@H](Cc1ccccc1)C(=O)N[C@@H](CCS(C)(=O)=O)C(=O)OC(C)C)NC[C@@H](N)CS	Not Active	Not Active	Not Active	Not Active	Not Active	Not Active	Not Active					
CO[C@@]12[C@H](COC(N)=O)C3=C(C(=O)C(C)=C(N)C3=O)N1C[C@@H]1N[C@@H]12 [MITOMYCIN]	Not Active	Not Active	Not Active	Not Active	Not Active	Not Active	Not Active					
CCOC(=O)C1=C(C)NC(C)=C(C(=O)OCC)C1c1ccccc1/C=C/C(=O)OC(C)(C)C [LACIDIPINE]	Not Active	Not Active	Not Active	Not Active	Not Active	Not Active	Not Active					
Cc1cn([C@H]2C=C[C@@H](CO)O2)c(=O)[nH]c1=O [STAVUDINE]	Not Active	Not Active	Not Active	Not Active	Not Active	Not Active	Not Active					
C#C[C@]1(O)CC[C@H]2[C@@H]3[C@H](C)CC4=C(CCC(=O)C4)[C@H]3CC[C@@]21C [TIBOLONE]	Not Active	Not Active	Not Active	Not Active	Not Active	Not Active	Not Active					
CC(O)C(=O)O (stereo not given) [LACTIC ACID]	Not Active	Not Active	Not Active	Not Active	Not Active	Not Active	Not Active					
O=C(O)c1cc(/N=N/c2ccc(S(=O)(=O)Nc3ccccn3)cc2)ccc1O [SULFASALAZINE]	Not Active	Not Active	Not Active	Not Active		Not Active	Not Active	6.33 µM				
CCN(CC)C(=S)SSC(=S)N(CC)CC	Not Active	Not Active		Not Active	Not Active	Not Active	Not Active		23.7 µM	18.3 µM		
CNCCCC12CCC(c3ccccc31)c1ccccc12 [MAPROTILINE]	Not Active	Not Active	Not Active	Not Active	Not Active	Not Active	Not Active					
Cc1ccc(Cl)c(Nc2ccccc2C(=O)O)c1Cl [MECLOFENAMIC ACID]	Not Active	Not Active	Not Active	Not Active		Not Active	Not Active	3.14 µM				
CC(C)(C)NC[C@H](O)COc1cccc2c1CCCC2=O [LEVOBUNOLOL]		Not Active	Not Active	Not Active	Not Active	Not Active	Not Active				0.0069 µM	0.00399 µM
Cc1cccc(C)c1NC(=O)C(C)N (stereo not given) [TOCAINIDE]	Not Active	Not Active	Not Active	Not Active	Not Active	Not Active	Not Active					

Structure (SMILES)	IC50 ([1]; cho-k1)	IC50 (Substance-P receptor)	IC50 ([2]; hek293)	IC50 [3]	IC50 [4]	IC50 (Adenosine receptor A1)	IC50 (Adenosine receptor A2a)	IC50 ([4]; read-out: IC50)	IC50 ([2]; read-out: IC50)	Ki ([2]; read-out: Ki)	IC50 ([1]; read-out: IC50)	Ki ([1]; read-out: Ki)
CCOc1cc(N)c(Cl)cc1C(=O)NCC1CN(Cc2ccc(F)cc2)CCO1 (stereo not given) [MOSAPRIDE]	Not Active	Not Active	Not Active	Not Active	Not Active	Not Active	Not Active					
Cc1cnc(NC(=O)C2=C(O)c3ccccc3S(=O)(=O)N2C)s1 [MELOXICAM]	Not Active	Not Active	Not Active	Not Active	Not Active	Not Active	Not Active					
O=C1CC[C@@]2(O)[C@H]3Cc4ccc(O)c5c4[C@@]2(CCN3CC2CC2)[C@H]1O5 [NALTREXONE]	Not Active	Not Active	Not Active	Not Active	Not Active	Not Active	Not Active					
O=C(c1ccccc1)c1ccc2n1CCC2C(=O)O (stereo not given) [KETOROLAC]	Not Active	Not Active	Not Active	Not Active	Not Active	Not Active	Not Active					
Oc1ccc(/C=C/c2cc(O)cc(O)c2)cc1 [RESVERATROL]	Not Active	Not Active	Not Active	Not Active	Not Active	Not Active	Not Active					
CN1C(=O)OC(C)(C)C1=O [TRIMETHADIONE]	Not Active	Not Active	Not Active	Not Active	Not Active	Not Active	Not Active					
Cc1[nH]c(=O)c(C#N)cc1-c1ccncc1 [MILRINONE]	Not Active	Not Active	Not Active	Not Active	Not Active	Not Active	Not Active					
C[C@]12CCC(=O)C[C@@H]1CC[C@@H]1[C@@H]2CC[C@]2(C)[C@@H](O)CC[C@@H]12 [STANOLONE]	Not Active	Not Active	Not Active	Not Active	Not Active	Not Active	Not Active					
CCN(CC)CCNC(=O)c1cc(Cl)c(N)cc1OC [METOCLOPRAMIDE]	Not Active	Not Active	Not Active	Not Active	Not Active	Not Active	Not Active					
CN(C)CCC=C1c2ccccc2COc2ccccc21 [DOXEPIN]		Not Active	Not Active	Not Active	Not Active	Not Active	Not Active					
COC(=O)Nc1nc2ccc(C(=O)c3ccccc3)cc2[nH]1 [MEBENDAZOLE]	Not Active	Not Active	Not Active	Not Active	Not Active	Not Active	Not Active					
O=[As][O-].[Na+] [SODIUM ARSENITE]	Not Active	Not Active	Not Active	Not Active	Not Active	Not Active	Not Active					
CS(=O)(=O)c1ccc(C2=C(c3ccccc3)C(=O)OC2)cc1 [ROFECOXIB]	Not Active	Not Active	Not Active	Not Active	Not Active	Not Active	Not Active					
CC1(C)[C@H](C(=O)O)N2C(=O)C[C@H]2S1(=O)=O [SULBACTAM]	Not Active	Not Active	Not Active	Not Active	Not Active	Not Active	Not Active					
CC(N)C12CC3CC(CC(C3)C1)C2 (stereo not given) [RIMANTADINE]	Not Active	Not Active	Not Active	Not Active	Not Active	Not Active	Not Active					
CC[C@H](C)C(=O)O[C@H]1CCC=C2C=C[C@H](C)[C@H](CC[C@@H]3C[C@@H](O)CC(=O)O3)[C@H]21 [MEVASTATIN]	Not Active	Not Active	Not Active	Not Active	Not Active	Not Active	Not Active					

Source: ChEMBL document CHEMBL1909046, “DrugMatrix in vitro pharmacology data”
